Here are results for two compounds from patent US6699859B1 (dated 2004).

`Cn1cnc(COc2nn3c(-c4cccs4)nnc3c(Cl)c2N2CCOCC2)n1`: the melting point (commonly the temperature of the solid-liquid transition) was 221.9 to 222.8 °C.

`Cn1ncnc1COc1nn2c(-c3ccccc3)nnc2c(Cl)c1N1CCCC1`: the melting point was in the range of 174.5 to 176 °C.
